Test results taken from patent US7667052B2 (Eisai R&D Management Co., Ltd., priority 2003, dated 2010).
Read-outs that look alike come from different tables or passages of the source.

Tested on: transcription from VEGF promoter
Test: VEGF transcription-suppressing activity, VEGF-PLAP reporter in U251/1-8 cell
Type: cell-based
Conditions: Homo sapiens
From the text: In order to prepare reporter system reflecting transcription from VEGF promoter, VEGF promoter sequence was cloned, and inserted in secretory alkali phosphatase (PLAP) vector to construct reporter vector.
In order to obtain the promoter region of human VEGF, VEGF genome was cloned from phage library. PCR primers having the sequences described in Sequence Numbers 1 and 2 were designed based on VEGF cDNA (GenBank accession number: X62568) and a fragment having about 340 bp was obtained by carrying out PCR. Human genome phage library (Human genomic library, Clontech Co.) was screened using this as a probe to obtain pUC18-VEGFA containing about 5.4 kb of VEGF 5′ flanking region. The pUC18-VEGFA was cleaved by KpnI/NheI, VEGF promoter region of about 2.3 kb obtained was inserted in the multi cloning site KpnI/NheI of secretory alkali phosphatase (PLAP) vector (Goto et al, Mol. Pharmacol., 49, 860-873, 1996), and thus, VEGF-PLAP vector was constructed.
The above-mentioned VEGF-PLAP vector was introduced in the U251 cell cultured in the DULBECCO-modified eagle medium (DMEM; manufactured by SIGMA Co., Ltd.) containing 10% fetal calf serum, and cultured in the presence of 1 mg/ml G418 (Merck Co.) to establish G418 resistant stable clone (U251/1-8 cell).
It was confirmed that U251/1-8 cell secreted PLAP under low oxygen (2% O2 incubator) in the same manner as in the report (Cell. Mol. Biol. Res. 40, 35-39, 1994) and was a reporter system reflecting the transcription from VEGF promoter. The screening of the compound suppressing VEGF production which was induced by low oxygen stimulation was carried out below using the clone.
In order to remove the influence of alkaline phosphates in serum, U251/1-8 cell was rinsed twice with the adequate amount of PBS (Phosphate buffered saline), diluted in the DMEM medium containing 10% of serum in which alkaline phosphates was inactivated by the treatment of 60° C. for 20 min., and dispensed in 96-well plates by 4×10^4 cells/180 μl.
After culturing at 37° C. overnight in a CO2 incubator (5% CO2), 20 μL of the above-mentioned incubation solution containing the test compound diluted with 3-fold succession was added, and then they were incubated in a low oxygen ([…]) incubator for 18 hours. With respect to the PLAP activity in the culture supernatants, 10 μl of the supernatants was added to 50 μl of 0.28 M Na2CO3—NaHCO3 buffer solution (pH 10.0, 8.0 mM MgSO4), and finally 50 μl of alkaline phosphatase substrate (LUMISTEIN, Genomescience Co.) was added. After reacting for one hour, the alkaline phosphatase activity of the PLAP was measured by detecting the chemical luminescence by a micro plate reader (Perkin-Elmer Co.).
The PLAP activity under usual oxygen was set as 0%, the PLAP activity of cell which was treated under low oxygen was set as 100%, and the concentration suppressing the PLAP activity by 50% was set as the IC50 value of PLAP.

[1] = U-251, U251/1-8 cell, PLAP activity, low oxygen 18 hours, read-out: IC50 values of VEGF transcription-suppressing activity (range given)
[2] = U-251, U251/1-8 cell, PLAP activity, low oxygen 18 hours, read-out: VEGF transcription suppressing activity (IC50: nM)

CCC(O)C(C)C1OC1CC(C)/C=C/C=C(\C)C1OC(=O)CC(O)/C=C/C(C)(O)C(OC(C)=O)/C=C/C1C (centres unmarked) [11107H]
IC50 [1]: 1 to 100 nM
IC50 [2]: 3.1 nM

CCC(O)C(C)C1OC1C(O)C(C)/C=C/C=C(\C)C1OC(=O)CC(O)CCC(C)(O)C(OC(C)=O)/C=C/C1C (centres unmarked) [11107P]
IC50 [1]: 1 to 100 nM

CCC(O)C(C)C(Cl)C(O)CC(C)/C=C/C=C(\C)C1OC(=O)CC(O)CCC(C)(O)C(OC(C)=O)/C=C/C1C (centres unmarked) [B1-1, (8E,12E,14E)-7-Acetoxy-19-chloro-3,6,18,21-tetrahydroxy-6,10,12,16,20-pentamethyltricosa-8,12,14-trien-11-olide]
IC50 [1]: 0.5 to 100 nM

CCC(O)C(C)C(O)C(Cl)CC(C)/C=C/C=C(\C)C1OC(=O)CC(O)CCC(C)(O)C(OC(C)=O)/C=C/C1C (centres unmarked) [B1-2, (8E,12E,14E)-7-acetoxy-18-chloro-3,6,19,21-tetrahydroxy-6,10,12,16,20-pentamethyltricosa-8,12,14-trien-11-olide]
IC50 [1]: 0.5 to 100 nM

CCC(O)C(C)C(O)C(Br)CC(C)/C=C/C=C(\C)C1OC(=O)CC(O)CCC(C)(O)C(OC(C)=O)/C=C/C1C (centres unmarked) [B2-1, (8E,12E,14E)-7-Acetoxy-18-bromo-3,6,19,21-tetrahydroxy-6,10,12,16,20-pentamethyltricosa-8,12,14-trien-11-olide]
IC50 [1]: 0.5 to 100 nM

CCC(O)C(C)C(Br)C(O)CC(C)/C=C/C=C(\C)C1OC(=O)CC(O)CCC(C)(O)C(OC(C)=O)/C=C/C1C (centres unmarked) [B2-2, (8E,12E,14E)-7-acetoxy-19-bromo-3,6,18,21-tetrahydroxy-6,10,12,16,20-pentamethyltricosa-8,12,14-trien-11-olide]
IC50 [1]: 0.5 to 100 nM

CCC(O)C(C)C(I)C(O)CC(C)/C=C/C=C(\C)C1OC(=O)CC(O)CCC(C)(O)C(OC(C)=O)/C=C/C1C (centres unmarked) [B3-1, (8E,12E,14E)-7-Acetoxy-3,6,18,21-tetrahydroxy-19-iodo-6,10,12,16,20-pentamethyltricosa-8,12,14-trien-11-olide]
IC50 [1]: 0.5 to 100 nM

CCC(O)C(C)C(O)C(I)CC(C)/C=C/C=C(\C)C1OC(=O)CC(O)CCC(C)(O)C(OC(C)=O)/C=C/C1C (centres unmarked) [B3-2, (8E,12E,14E)-7-acetoxy-3,6,19,21-tetrahydroxy-18-iodo-6,10,12,16,20-pentamethyltricosa-8,12,14-trien-11-olide]
IC50 [1]: 0.5 to 100 nM

CCC(OC)C(C)C1OC1CC(C)/C=C/C=C(\C)C1OC(=O)CC(O)CCC(C)(O)C(OC(C)=O)/C=C/C1C (centres unmarked) [B8-1, (8E,12E,14E)-7-Acetoxy-3,6-dihydroxy-21-methoxy-6,10,12,16,20-pentamethyl-18,19-epoxytricosa-8,12,14-trien-11-olide]
IC50 [1]: 0.5 to 100 nM

CCC(OC)C(C)C1OC1CC(C)/C=C/C=C(\C)C1OC(=O)CC(O)CCC(C)(OC)C(OC(C)=O)/C=C/C1C (centres unmarked) [B8-2, (8E,12E,14E)-7-acetoxy-3-hydroxy-6,21-dimethoxy-6,10,12,16,20-pentamethyl-18,19-epoxytricosa-8,12,14-trien-11-olide]
IC50 [1]: 0.5 to 100 nM

CCC(O)C(C)C1OC1CC(C)/C=C/C=C(\C)C1OC(=O)CC(OC)CCC(C)(O)C(OC(C)=O)/C=C/C1C (centres unmarked) [B8-4, (8E,12E,14E)-7-acetoxy-6,21-dihydroxy-3-methoxy-6,10,12,16,20-pentamethyl-18,19-epoxytricosa-8,12,14-trien-11-olide]
IC50 [1]: 0.5 to 100 nM

CCC(O)C(C)C1OC1CC(C)/C=C/C=C(\C)C1OC(=O)CC(O)CCC(C)(OC)C(OC(C)=O)/C=C/C1C (centres unmarked) [B8-5, (8E,12E,14E)-7-acetoxy-3,21-dihydroxy-6-methoxy-6,10,12,16,20-pentamethyl-18,19-epoxytricosa-8,12,14-trien-11-olide]
IC50 [1]: 0.5 to 100 nM

CCC(OC)C(C)C1OC1C(O)C(C)/C=C/C=C(\C)C1OC(=O)CC(O)CCC(C)(O)C(OC(C)=O)/C=C/C1C (centres unmarked) [B9, (8E,12E,14E)-7-Acetoxy-3,6,17-trihydroxy-21-methoxy-6,10,12,16,20-pentamethyl-18,19-epoxytricosa-8,12,14-trien-11-olide]
IC50 (U-251, 18 h, read-out: IC50 values of VEGF transcription-suppressing activity (range given)): 0.5 to 100 nM

CCC(OS(C)(=O)=O)C(C)C1OC1CC(C)/C=C/C=C(\C)C1OC(=O)CC(O)CCC(C)(O)C(OC(C)=O)/C=C/C1C (centres unmarked) [B16-1, (8E,12E,14E)-7-Acetoxy-3,6-dihydroxy-21-methanesulfonyloxy-6,10,12,16,20-pentamethyl-18,19-epoxytricosa-8,12,14-trien-11-olide]
IC50 [1]: 0.5 to 100 nM

CCC(OS(=O)(=O)c1ccc(C)cc1)C(C)C1OC1CC(C)/C=C/C=C(\C)C1OC(=O)CC(O)CCC(C)(O)C(OC(C)=O)/C=C/C1C (centres unmarked) [B17, (8E,12E,14E)-7-Acetoxy-3,6-dihydroxy-21-(toluene-4-sulfonyloxy)-6,10,12,16,20-pentamethyl-18,19-epoxytricosa-8,12,14-trien-11-olide]
IC50 [1]: 0.5 to 100 nM

CCC(F)C(C)C1OC1CC(C)/C=C/C=C(\C)C1OC(=O)CC(O)CCC(C)(O)C(OC(C)=O)/C=C/C1C (centres unmarked) [B18-1, (8E,12E,14E)-7-Acetoxy-21-fluoro-3,6-dihydroxy-6,10,12,16,20-pentamethyl-18,19-epoxytricosa-8,12,14-trien-11-olide]
IC50 [1]: 0.5 to 100 nM

CCC(OC(C)=O)C(C)C1OC1CC(C)/C=C/C=C(\C)C1OC(=O)CC(O)CCC(C)(O)C(OC(C)=O)/C=C/C1C (centres unmarked) [B20-2, (8E,12E,14E)-7,21-diacetoxy-3,6-dihydroxy-6,10,12,16,20-pentamethyl-18,19-epoxytricosa-8,12,14-trien-11-olide]
IC50 [1]: 0.5 to 100 nM
IC50 [2]: 1.6 nM

CCC(OC(C)=O)C(C)C(O)C(Cl)CC(C)/C=C/C=C(\C)C1OC(=O)CC(O)CCC(C)(O)C(OC(C)=O)/C=C/C1C (centres unmarked) [B21-2, (8E,12E,14E)-7,21-diacetoxy-18-chloro-3,6,19-trihydroxy-6,10,12,16,20-pentamethyltricosa-8,12,14-trien-11-olide]
IC50 [1]: 0.5 to 100 nM

CCC(O)C(C)C(OC(C)=O)C(Cl)CC(C)/C=C/C=C(\C)C1OC(=O)CC(OC(C)=O)CCC(C)(O)C(OC(C)=O)/C=C/C1C (centres unmarked) [B21-3, (8E,12E,14E)-3,7,19-triacetoxy-18-chloro-6,21-dihydroxy-6,10,12,16,20-pentamethyltricosa-8,12,14-trien-11-olide]
IC50 [1]: 0.5 to 100 nM

CCC(OC(C)=O)C(C)C(OC(C)=O)C(Cl)CC(C)/C=C/C=C(\C)C1OC(=O)CC(O)CCC(C)(O)C(OC(C)=O)/C=C/C1C (centres unmarked) [B21-4, (8E,12E,14E)-7,19,21-triacetoxy-18-chloro-3,6-dihydroxy-6,10,12,16,20-pentamethyltricosa-8,12,14-trien-11-olide]
IC50 [1]: 0.5 to 100 nM

CCC(OC(C)=O)C(C)C(Br)C(CC(C)/C=C/C=C(\C)C1OC(=O)CC(O)CCC(C)(O)C(OC(C)=O)/C=C/C1C)OC(C)=O (centres unmarked) [B23-1, (8E,12E,14E)-7,18,21-Triacetoxy-19-bromo-3,6-dihydroxy-6,10,12,16,20-pentamethyltricosa-8,12,14-trien-11-olide]
IC50 [1]: 0.5 to 100 nM

CCOCC(=O)OC1CCC(C)(O)C(OC(C)=O)/C=C/C(C)C(/C(C)=C/C=C/C(C)CC2OC2C(C)C(O)CC)OC(=O)C1 (centres unmarked) [B24, (8E,12E,14E)-7-Acetoxy-3-ethoxyacetoxy-6,21-dihydroxy-6,10,12,16,20-pentamethyl-18,19-epoxytricosa-8,12,14-trien-11-olide]
IC50 [1]: 0.5 to 100 nM

CCOCC(=O)OC(CC)C(C)C1OC1CC(C)/C=C/C=C(\C)C1OC(=O)CC(O)CCC(C)(O)C(OC(C)=O)/C=C/C1C (centres unmarked) [B25, (8E,12E,14E)-7-Acetoxy-21-ethoxyacetoxy-3,6-dihydroxy-6,10,12,16,20-pentamethyl-18,19-epoxytricosa-8,12,14-trien-11-olide]
IC50 [1]: 0.5 to 100 nM

CCOCC(=O)OCC(=O)OC1CCC(C)(O)C(OC(C)=O)/C=C/C(C)C(/C(C)=C/C=C/C(C)CC2OC2C(C)C(O)CC)OC(=O)C1 (centres unmarked) [B26]
IC50 [1]: 0.5 to 100 nM
